In the NIST ThermoML archive (doi:10.1016/j.jct.2007.08.008):
“And” between values parts separate entries of the source, which are not always exact repeats. Identical values can stand only once. ± gives the expanded uncertainty stated by the source.

Details: Crystal; for mass density: 298.15 K, 101.33 kPa, measurement of volume and mass of pellet; for vapor or sublimation pressure: Calculated from knudsen effusion weight loss

## c1ccc(-c2cccc(-c3ccccc3)c2)cc1 [m-terphenyl]
  mass density: 1140 ± 20 kg/m3
337.28 K
  vapor or sublimation pressure: 6.28e-05 ± 3.2e-06 kPa and 6.44e-05 ± 3.2e-06 kPa and 6.48e-05 ± 3.3e-06 kPa
339.22 K
  vapor or sublimation pressure: 8.09e-05 ± 4.1e-06 kPa and 8.13e-05 ± 4.1e-06 kPa and 7.88e-05 ± 4e-06 kPa
341.11 K
  vapor or sublimation pressure: 0.000101 ± 5e-06 kPa and 9.73e-05 ± 4.9e-06 kPa
343.27 K
  vapor or sublimation pressure: 0.000133 ± 7e-06 kPa and 0.00013 ± 1e-05 kPa and 0.000134 ± 7e-06 kPa
345.21 K
  vapor or sublimation pressure: 0.000164 ± 8e-06 kPa and 0.000163 ± 8e-06 kPa and 0.000162 ± 8e-06 kPa
347.1 K
  vapor or sublimation pressure: 0.000197 ± 1e-05 kPa and 0.000204 ± 1e-05 kPa
349.27 K
  vapor or sublimation pressure: 0.000263 ± 1.3e-05 kPa and 0.000257 ± 1.3e-05 kPa and 0.000264 ± 1.3e-05 kPa
351.2 K
  vapor or sublimation pressure: 0.000324 ± 1.6e-05 kPa and 0.000328 ± 1.6e-05 kPa
353.11 K
  vapor or sublimation pressure: 0.000403 ± 2e-05 kPa and 0.000399 ± 2e-05 kPa
355.28 K
  vapor or sublimation pressure: 0.000518 ± 2.6e-05 kPa and 0.000524 ± 2.6e-05 kPa and 0.000532 ± 2.7e-05 kPa
357.19 K
  vapor or sublimation pressure: 0.000655 ± 3.3e-05 kPa and 0.00065 ± 3.3e-05 kPa and 0.000648 ± 3.2e-05 kPa
359.1 K
  vapor or sublimation pressure: 0.000797 ± 4e-05 kPa and 0.00081 ± 4.1e-05 kPa and 0.000807 ± 4e-05 kPa

## c1ccc(-c2ccccc2-c2ccccc2)cc1 [o-terphenyl]
  mass density: 1120 ± 20 kg/m3
312.3 K
  vapor or sublimation pressure: 6.04e-05 ± 3e-06 kPa and 6.13e-05 ± 3.1e-06 kPa and 5.87e-05 ± 2.9e-06 kPa
313.79 K
  vapor or sublimation pressure: 7.08e-05 ± 3.6e-06 kPa and 7.16e-05 ± 3.6e-06 kPa
315.13 K
  vapor or sublimation pressure: 8.28e-05 ± 4.2e-06 kPa
315.14 K
  vapor or sublimation pressure: 8.47e-05 ± 4.2e-06 kPa and 8.48e-05 ± 4.3e-06 kPa
315.78 K
  vapor or sublimation pressure: 7.29e-05 ± 1.2e-05 kPa
316.78 K
  vapor or sublimation pressure: 0.000103 ± 5e-06 kPa and 0.000102 ± 5e-06 kPa and 0.000104 ± 5e-06 kPa
318.28 K
  vapor or sublimation pressure: 0.000125 ± 6e-06 kPa and 0.000123 ± 6e-06 kPa and 0.000124 ± 6e-06 kPa
319.64 K
  vapor or sublimation pressure: 0.000143 ± 7e-06 kPa and 0.000145 ± 7e-06 kPa and 0.000148 ± 7e-06 kPa
321.28 K
  vapor or sublimation pressure: 0.000181 ± 9e-06 kPa and 0.000179 ± 9e-06 kPa and 0.000174 ± 9e-06 kPa
322.78 K
  vapor or sublimation pressure: 0.000217 ± 1.1e-05 kPa and 0.000212 ± 1.1e-05 kPa
324.14 K
  vapor or sublimation pressure: 0.000247 ± 1.2e-05 kPa and 0.000249 ± 1.2e-05 kPa
325.78 K
  vapor or sublimation pressure: 0.000305 ± 1.5e-05 kPa and 0.000308 ± 1.5e-05 kPa and 0.0003 ± 1.5e-05 kPa
327.28 K
  vapor or sublimation pressure: 0.000368 ± 1.8e-05 kPa and 0.00036 ± 1.8e-05 kPa and 0.000361 ± 1.8e-05 kPa
328.63 K
  vapor or sublimation pressure: 0.000419 ± 2.1e-05 kPa and 0.000422 ± 2.1e-05 kPa and 0.000423 ± 2.1e-05 kPa

## c1ccc(-c2ccc(-c3ccccc3)cc2)cc1 [p-terphenyl]
  mass density: 1200 ± 20 kg/m3
373.27 K
  vapor or sublimation pressure: 0.000127 ± 6e-06 kPa and 0.000126 ± 6e-06 kPa and 0.000125 ± 6e-06 kPa
375.22 K
  vapor or sublimation pressure: 0.000154 ± 8e-06 kPa and 0.000153 ± 8e-06 kPa
377.14 K
  vapor or sublimation pressure: 0.000185 ± 9e-06 kPa and 0.000189 ± 9e-06 kPa and 0.000182 ± 9e-06 kPa
379.28 K
  vapor or sublimation pressure: 0.000232 ± 1.2e-05 kPa and 0.000233 ± 1.2e-05 kPa and 0.000234 ± 1.2e-05 kPa
381.21 K
  vapor or sublimation pressure: 0.00028 ± 2e-05 kPa and 0.000283 ± 1.4e-05 kPa and 0.000281 ± 1.4e-05 kPa
383.28 K
  vapor or sublimation pressure: 0.000344 ± 1.7e-05 kPa and 0.000347 ± 1.7e-05 kPa and 0.000348 ± 1.7e-05 kPa
385.17 K
  vapor or sublimation pressure: 0.000421 ± 2.1e-05 kPa and 0.000417 ± 2.1e-05 kPa
387.12 K
  vapor or sublimation pressure: 0.000516 ± 2.6e-05 kPa and 0.000498 ± 2.5e-05 kPa
389.27 K
  vapor or sublimation pressure: 0.000628 ± 3.1e-05 kPa and 0.000626 ± 3.1e-05 kPa and 0.000631 ± 3.2e-05 kPa
391.16 K
  vapor or sublimation pressure: 0.000748 ± 3.7e-05 kPa and 0.000758 ± 3.8e-05 kPa and 0.000757 ± 3.8e-05 kPa
393.22 K
  vapor or sublimation pressure: 0.000928 ± 4.6e-05 kPa and 0.000931 ± 4.7e-05 kPa and 0.000922 ± 4.6e-05 kPa
395.27 K
  vapor or sublimation pressure: 0.001137 ± 0.00012 kPa and 0.001131 ± 0.00012 kPa and 0.001138 ± 0.00012 kPa
